From patent US5324502A, “Radiopharmaceuticals for imaging the heart” (priority 1992, dated 1994)
Like-named read-outs stand apart in the source and are kept apart here.

Key:
[1] = Octanol/water partition coefficient of radiolabeled gallium complexes; type: physicochemical; settings: octanol/tris buffer, pH 7
Experimental: Octanol/water partition coefficients were measured by vortex mixing 1 mL of 1-octanol and 1 mL of isotonic Tris buffer (pH 7.0) with a 1-5 μL sample of the radiolabeled gallium complex. Following centrifugation at >1200 g for 5 minutes, the octanol and aqueous phases were sampled and counted in an automatic well counter.

[2] = rat, i.v.
Experimental: The gallium-67 complexes are prepared by ligand exchange from gallium-67 chloride, employing the tris(acetylacetonato)gallium(III) complex as an intermediate. The Ga-67 acetylacetonate in ethanol is reacted with the chelating ligand or ligand precursor at elevated temperature to form rapidly the desired gallium radiopharmaceutical. […] The biodistribution of several radiopharmaceuticals was determined in rats following intravenous injection using techniques previously described (M. A. Green, Nuclear Medicine and Biology 14:59-61, 1987; E. John and M. A. Green, J. Medicinal Chemistry, 33:1764-1770, 1990).
Under ether anesthesia, 1 to 3 μCi (0.1-0.2 mL) of no-carrier-added Ga-67 compound was administered by bolus injection into the femoral vein of male Sprague-Dawley rats. The ether anesthetized rats were sacrificed by decapitation at given time intervals post-injection, organs of interest were removed, weighed, and the gallium-67 activity counted. The biodistribution was calculated as a percentage of the injected dose per gram of tissue and percentage of injected dose per organ for each sample.

SMILES: COc1cc([O-])c(C=NCCCNCCNCCCN=Cc2c([O-])cc(OC)cc2OC)c(OC)c1.[67Ga+3] [(4,6-MeO2 Sal)2 BAPEN]
- log P [1]: 1.68
- % Injected Dose per Gram Tissue, Blood ([2]; 1 min): 0.66 ± 0.14 % Injected Dose per Gram Tissu
- % Injected Dose per Gram Tissue, Brain ([2]; 1 min): 0.03 ± 0.01 % Injected Dose per Gram Tissu
- % Injected Dose per Gram Tissue, Heart ([2]; 1 min): 1.52 ± 0.24 % Injected Dose per Gram Tissu
- % Injected Dose per Gram Tissue, Kidney (one) ([2]; 1 min): 6.40 ± 0.92 % Injected Dose per Gram Tissu
- % Injected Dose per Gram Tissue, Liver ([2]; 1 min): 4.72 ± 0.82 % Injected Dose per Gram Tissu
- % Injected Dose per Gram Tissue, Lungs ([2]; 1 min): 0.81 ± 0.16 % Injected Dose per Gram Tissu
- % Injected Dose per Gram Tissue, Spleen ([2]; 1 min): 0.61 ± 0.09 % Injected Dose per Gram Tissu
- % injected dose in heart, 1 min ([2]; 1 min, preliminary studies): 1.04 ± 0.12 % injected dose
- % Injected Dose Per Gram of Tissue, Blood ([2]; 5 min): 0.11 ± 0.01 % Injected Dose Per Gram of Tissue
- % Injected Dose Per Gram of Tissue, Brain ([2]; 5 min): 0.01 ± 0.00 % Injected Dose Per Gram of Tissue
- % Injected Dose Per Gram of Tissue, Heart ([2]; 5 min): 1.45 ± 0.20 % Injected Dose Per Gram of Tissue
- % Injected Dose Per Gram of Tissue, Kidney (1) ([2]; 5 min): 6.10 ± 0.53 % Injected Dose Per Gram of Tissue
- % Injected Dose Per Gram of Tissue, Liver ([2]; 5 min): 4.32 ± 0.53 % Injected Dose Per Gram of Tissue
- % Injected Dose Per Gram of Tissue, Lungs ([2]; 5 min): 0.55 ± 0.05 % Injected Dose Per Gram of Tissue
- % Injected Dose Per Gram of Tissue, Spleen ([2]; 5 min): 0.52 ± 0.15 % Injected Dose Per Gram of Tissue
- % Injected Dose per Gram Tissue, Blood ([2]; 15 min): 0.07 ± 0.01 % Injected Dose per Gram Tissu
- % Injected Dose per Gram Tissue, Brain ([2]; 15 min): 0.01 ± 0.00 % Injected Dose per Gram Tissu
- % Injected Dose per Gram Tissue, Heart ([2]; 15 min): 1.22 ± 0.12 % Injected Dose per Gram Tissu
- % Injected Dose per Gram Tissue, Kidney (one) ([2]; 15 min): 4.22 ± 0.30 % Injected Dose per Gram Tissu
- % Injected Dose per Gram Tissue, Liver ([2]; 15 min): 2.19 ± 0.21 % Injected Dose per Gram Tissu
- % Injected Dose per Gram Tissue, Lungs ([2]; 15 min): 0.42 ± 0.06 % Injected Dose per Gram Tissu
- % Injected Dose per Gram Tissue, Spleen ([2]; 15 min): 0.43 ± 0.06 % Injected Dose per Gram Tissu
- % Injected Dose per Gram Tissue, Blood ([2]; 120 min): 0.03 ± 0.00 % Injected Dose per Gram Tissu
- % Injected Dose per Gram Tissue, Brain ([2]; 120 min): 0.01 ± 0.00 % Injected Dose per Gram Tissu
- % Injected Dose per Gram Tissue, Heart ([2]; 120 min): 1.37 ± 0.12 % Injected Dose per Gram Tissu
- % Injected Dose per Gram Tissue, Kidney (one) ([2]; 120 min): 2.77 ± 0.24 % Injected Dose per Gram Tissu
- % Injected Dose per Gram Tissue, Liver ([2]; 120 min): 0.33 ± 0.01 % Injected Dose per Gram Tissu
- % Injected Dose per Gram Tissue, Lungs ([2]; 120 min): 0.45 ± 0.11 % Injected Dose per Gram Tissu
- % Injected Dose per Gram Tissue, Spleen ([2]; 120 min): 0.37 ± 0.06 % Injected Dose per Gram Tissu
- % injected dose in heart, 2 h ([2]; 2 h, preliminary studies): 0.86 ± 0.11 % injected dose
- Heart/Blood ([2]; ratio, 1 min): 2.34 ± 0.36
- Heart/Liver ([2]; ratio, 1 min): 0.32 ± 0.03
- Heart/Lungs ([2]; ratio, 1 min): 1.88 ± 0.18
- Heart/Blood ([2]; ratio, 5 min): 13.28 ± 2.19
- Heart/Liver ([2]; ratio, 5 min): 0.34 ± 0.04
- Heart/Lung ([2]; ratio, 5 min): 2.64 ± 0.34
- Heart/Blood ([2]; ratio, 15 min): 18.10 ± 0.91
- Heart/Liver ([2]; ratio, 15 min): 0.56 ± 0.10
- Heart/Lungs ([2]; ratio, 15 min): 2.98 ± 0.53
- Heart/Blood ([2]; ratio, 120 min): 45.58 ± 3.96
- Heart/Liver ([2]; ratio, 120 min): 4.12 ± 0.44
- Heart/Lungs ([2]; ratio, 120 min): 3.27 ± 1.32
